Patent US8759295B2, “Peptide-peptidase inhibitor conjugates and methods of using same” (Amylin Pharmaceuticals, LLC, priority 2006, dated 2014)
Starred links: 1 amine or outer side, 2 acyl side, 3 side chain; linkers in the order of their positions; H or OH if unused. Non-standard residues stand in square brackets, D forms with d. Residues, ends and D or L forms follow the SMILES beside them. No end group written: not given here. *: point of attachment. Pyrrolidine(2S-CN) = N#C[C@@H]1CCCN1*; εLys = N[C@@H](CCCCN[*:1])C(=O)[*:2]; pGlu = O=C1CC[C@@H](C(=O)O)N1; AEEA = NCCOCCOCC(=O)O; βAla = NCCC(=O)O

How the values were obtained:
[1] = molecular target: T1, human GIP receptor (HEK-GIPR membranes) (Homo sapiens, UniProt P48546); experiment: GIP receptor binding displacement assay (RBA); details: 10 nM conjugate, 30 pM 125I-GIP; for inhibition at 0.01 µM: read-out: GIP RBA % inhibition at 10 nM
T1 construct: expressed in transfected cells
T1 sequence (P48546 22-466): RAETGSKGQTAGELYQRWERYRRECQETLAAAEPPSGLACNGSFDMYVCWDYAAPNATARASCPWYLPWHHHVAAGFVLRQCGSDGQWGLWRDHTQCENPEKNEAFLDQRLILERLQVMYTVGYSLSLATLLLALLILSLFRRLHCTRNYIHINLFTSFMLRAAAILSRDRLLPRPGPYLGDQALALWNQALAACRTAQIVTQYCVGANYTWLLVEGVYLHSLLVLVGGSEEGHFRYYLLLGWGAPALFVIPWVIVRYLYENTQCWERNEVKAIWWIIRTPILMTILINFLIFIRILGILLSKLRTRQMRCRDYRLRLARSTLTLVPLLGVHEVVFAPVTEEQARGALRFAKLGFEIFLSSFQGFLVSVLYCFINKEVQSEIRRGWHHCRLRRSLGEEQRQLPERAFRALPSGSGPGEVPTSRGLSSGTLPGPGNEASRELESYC
Description: Membrane fractions were prepared from confluent cell cultures of HEK-GIPR, snap frozen, and stored at −80° C. until use. […] Reactions were allowed to proceed to equilibrium for 90 minutes at room temperature with constant shaking. The reaction mixtures were then filtered through 96-well glass fiber filter plates separating bound and unbound fractions of radioligand.

NIH/Swiss mice = experiment: Oral glucose tolerance test (OGTT), glucose lowering; details: 30 nM/kg
Recombinant DPP-IV = Recombinant DPP-IV (Homo sapiens, UniProt P27487); experiment: DPP-IV inhibition assay with chromogenic substrate; assay type: biochemical; design: purchased Chemicon International, Inc., Temecula, Calif; details: mean SEM of at least three determinations
Sequence of Recombinant DPP-IV (P27487 whole entry, species assumed): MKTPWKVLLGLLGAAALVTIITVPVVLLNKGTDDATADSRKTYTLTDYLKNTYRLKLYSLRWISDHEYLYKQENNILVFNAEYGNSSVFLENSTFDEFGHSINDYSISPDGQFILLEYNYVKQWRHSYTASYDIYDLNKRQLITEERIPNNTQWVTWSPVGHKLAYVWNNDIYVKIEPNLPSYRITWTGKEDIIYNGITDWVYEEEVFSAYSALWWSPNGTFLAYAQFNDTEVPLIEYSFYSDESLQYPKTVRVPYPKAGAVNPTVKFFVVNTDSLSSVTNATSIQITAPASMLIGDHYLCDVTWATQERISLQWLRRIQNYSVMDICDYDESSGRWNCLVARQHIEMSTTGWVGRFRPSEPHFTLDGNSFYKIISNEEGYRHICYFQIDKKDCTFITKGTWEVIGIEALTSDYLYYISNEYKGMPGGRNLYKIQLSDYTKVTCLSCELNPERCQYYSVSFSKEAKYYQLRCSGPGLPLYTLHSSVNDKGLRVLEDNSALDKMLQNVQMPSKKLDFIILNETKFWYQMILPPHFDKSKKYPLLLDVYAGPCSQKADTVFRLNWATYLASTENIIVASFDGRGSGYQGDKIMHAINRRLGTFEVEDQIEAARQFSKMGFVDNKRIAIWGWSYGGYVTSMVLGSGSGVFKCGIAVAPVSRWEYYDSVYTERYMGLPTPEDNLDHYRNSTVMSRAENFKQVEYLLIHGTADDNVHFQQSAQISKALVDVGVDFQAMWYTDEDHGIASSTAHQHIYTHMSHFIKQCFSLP
Description: The reactions were initiated by adding 1 μl DPP-IV enzyme (0.05 mU) into each well and the absorbance at 410 nm was measured with 20-sec intervals over a 30-min period using a SpectraMax plate reader (Molecular Devices, Corp., Sunnyvale, Calif.). The velocities of each reaction at different inhibitor concentrations were calculated and the reciprocal velocities were plotted against inhibitor concentrations in Dixon graphs. The IC50 values of reaction velocities were calculated through fitting the plots with linear equation.
The IC50 (nM) values in Table 5 are expressed as the mean SEM of at least three independent determinations.

**Q.** What does the source list for “[D-Ala^2, Leu^14]GIP-(1-30)-β-Ala-β-Ala-Lys(α-NH-Pyroglutamoyl)-Trp-Ala-Pro-COOH (peptide 1 Y[dA]EGTFISDYSIALDKIHQQDFVNWLLAQK[βAla][βAla]; peptide 2 [pGlu]KWAP-OH; not fully specified (some residues); printed as [D-Ala^2, Leu^14]GIP-(1-30)-β-Ala-β-Ala-Lys(α-NH-Pyroglutamoyl)-Trp-Ala-Pro-COOH; numbers in words are those of the source; also: linker at chain B 1 to a chain's C-terminus via βAla-βAla)”?
**A.** GIP RBA % inhibition at 10 nM [1]: 66%; OGTT % maximal decrease (NIH/Swiss mice): −12^ %

**Q.** For `CC[C@H](C)[C@H](NC(=O)[C@H](CO)NC(=O)[C@H](Cc1ccc(O)cc1)NC(=O)[C@H](CC(=O)O)NC(=O)[C@H](CO)NC(=O)[C@@H](NC(=O)[C@H](Cc1ccccc1)NC(=O)[C@@H](NC(=O)CNC(=O)[C@H](CCC(=O)O)NC(=O)[C@H](C)NC(=O)[C@H](Cc1ccc(O)cc1)NC(=O)COCCOCCNC(=O)COCCOCCNC(=O)CC[C@H](N)C(=O)N1CCC[C@H]1C#N)[C@@H](C)O)[C@@H](C)CC)C(=O)N[C@@H](C)C(=O)N[C@@H](CCSC)C(=O)N[C@@H](CC(=O)O)C(=O)N[C@@H](CCCCN)C(=O)N[C@H](C(=O)N[C@@H](Cc1c[nH]cn1)C(=O)N[C@@H](CCC(N)=O)C(=O)N[C@@H](CCC(N)=O)C(=O)N[C@@H](CC(=O)O)C(=O)N[C@@H](Cc1ccccc1)C(=O)N[C@H](C(=O)N[C@@H](CC(N)=O)C(=O)N[C@@H](Cc1c[nH]c2ccccc12)C(=O)N[C@@H](CC(C)C)C(=O)N[C@@H](CC(C)C)C(=O)N[C@@H](C)C(=O)N[C@@H](CCC(N)=O)C(=O)N[C@@H](CCCCN)C(=O)N1CCC[C@H]1C(=O)N[C@@H](CO)C(=O)N[C@@H](CO)C(=O)NCC(=O)N[C@@H](C)C(=O)N1CCC[C@H]1C(=O)N1CCC[C@H]1C(=O)N1CCC[C@H]1C(=O)N[C@@H](CO)C(=O)O)C(C)C)[C@@H](C)CC` [N-(γ-L-Glu-2-(S)-cyanopyrrolidyl)-Ado-Ado) GIP(1-30)-exendin-4(31-39)], which IC50 (Recombinant DPP-IV) is on record?
**A.** 110 ± 2 nM

**Q.** What does the source list for `CC[C@H](C)[C@H](NC(=O)[C@H](CO)NC(=O)[C@H](Cc1ccc(O)cc1)NC(=O)[C@H](CC(=O)O)NC(=O)[C@H](CO)NC(=O)[C@@H](NC(=O)[C@H](Cc1ccccc1)NC(=O)[C@@H](NC(=O)CNC(=O)[C@H](CCC(=O)O)NC(=O)[C@H](C)NC(=O)[C@@H](N)Cc1ccc(O)cc1)[C@@H](C)O)[C@@H](C)CC)C(=O)N[C@@H](C)C(=O)N[C@@H](CCSC)C(=O)N[C@@H](CC(=O)O)C(=O)N[C@@H](CCCCN)C(=O)N[C@H](C(=O)N[C@@H](Cc1c[nH]cn1)C(=O)N[C@@H](CCC(N)=O)C(=O)N[C@@H](CCC(N)=O)C(=O)N[C@@H](CC(=O)O)C(=O)N[C@@H](Cc1ccccc1)C(=O)N[C@H](C(=O)N[C@@H](CC(N)=O)C(=O)N[C@@H](Cc1c[nH]c2ccccc12)C(=O)N[C@@H](CC(C)C)C(=O)N[C@@H](CC(C)C)C(=O)N[C@@H](C)C(=O)N[C@@H](CCC(N)=O)C(=O)N[C@@H](CCCCN)C(=O)NCCOCCOCC(=O)NCCOCCOCC(=O)NCCCC[C@H](N)C(=O)N1CCC[C@H]1C#N)C(C)C)[C@@H](C)CC` [GIP(1-30)-Ado-Ado-Lys-N-ε-(2-(S)-cyano pyrrolidyl)]?
**A.** inhibition at 0.01 µM [1]: 97%; OGTT % maximal decrease (NIH/Swiss mice): −17%

**Q.** With `CC[C@H](C)[C@H](NC(=O)[C@H](CO)NC(=O)[C@H](Cc1ccc(O)cc1)NC(=O)[C@H](CC(=O)O)NC(=O)[C@H](CO)NC(=O)[C@@H](NC(=O)[C@H](Cc1ccccc1)NC(=O)[C@@H](NC(=O)CNC(=O)[C@H](CCC(=O)O)NC(=O)[C@H](C)NC(=O)[C@H](Cc1ccc(O)cc1)NC(=O)COCCOCCNC(=O)COCCOCCNC(=O)CC[C@H](N)C(=O)N1CCC[C@H]1C#N)[C@@H](C)O)[C@@H](C)CC)C(=O)N[C@@H](C)C(=O)N[C@@H](CCSC)C(=O)N[C@@H](CC(=O)O)C(=O)N[C@@H](CCCCN)C(=O)N[C@H](C(=O)N[C@@H](Cc1c[nH]cn1)C(=O)N[C@@H](CCC(N)=O)C(=O)N[C@@H](CCC(N)=O)C(=O)N[C@@H](CC(=O)O)C(=O)N[C@@H](Cc1ccccc1)C(=O)N[C@H](C(=O)N[C@@H](CC(N)=O)C(=O)N[C@@H](Cc1c[nH]c2ccccc12)C(=O)N[C@@H](CC(C)C)C(=O)N[C@@H](CC(C)C)C(=O)N[C@@H](C)C(=O)N[C@@H](CCC(N)=O)C(=O)N[C@@H](CCCCN)C(=O)O)C(C)C)[C@@H](C)CC` [N-(γ-L-Glu-2-(S)-cyanopyrrolidyl)-Ado-Ado) GIP(1-30)] as the compound, how does the inhibition at 0.01 µM [1] read?
**A.** 32%

**Q.** What about the IC50 (Recombinant DPP-IV) of the same compound?
**A.** 64 ± 8 nM

**Q.** With “H-YAEGTFISDYSIALDKIHQQDFVNWLLAQKPSSGAPPPS[AEEA][εLys]-{Pyrrolidine(2S-CN)} [[Leu^14]GIP(1-30)-exendin-4(31-39)-Ado-Lys-N-ε-(2-(S)-cyano pyrrolidyl)]” as the compound, how does the IC50 (Recombinant DPP-IV) read?
**A.** 82 ± 2 nM

**Q.** For `CC[C@H](C)[C@H](NC(=O)[C@H](CO)NC(=O)[C@H](Cc1ccc(O)cc1)NC(=O)[C@H](CC(=O)O)NC(=O)[C@H](CO)NC(=O)[C@@H](NC(=O)[C@H](Cc1ccccc1)NC(=O)[C@@H](NC(=O)CNC(=O)[C@H](CCC(=O)O)NC(=O)[C@H](C)NC(=O)[C@@H](N)Cc1ccc(O)cc1)[C@@H](C)O)[C@@H](C)CC)C(=O)N[C@@H](C)C(=O)N[C@@H](CCSC)C(=O)N[C@@H](CC(=O)O)C(=O)N[C@@H](CCCCN)C(=O)N[C@H](C(=O)N[C@@H](Cc1c[nH]cn1)C(=O)N[C@@H](CCC(N)=O)C(=O)N[C@@H](CCC(N)=O)C(=O)N[C@@H](CC(=O)O)C(=O)N[C@@H](Cc1ccccc1)C(=O)N[C@H](C(=O)N[C@@H](CC(N)=O)C(=O)N[C@@H](Cc1c[nH]c2ccccc12)C(=O)N[C@@H](CC(C)C)C(=O)N[C@@H](CC(C)C)C(=O)N[C@@H](C)C(=O)N[C@@H](CCC(N)=O)C(=O)N[C@@H](CCCCNC(=O)COCCOCCNC(=O)CC[C@H](N)C(=O)N1CCC[C@H]1C#N)C(N)=O)C(C)C)[C@@H](C)CC` [Lys^30N-ε-(Ado-(γ-L-Glu-2-(S)-cyanopyrrolidyl)) GIP(1-30)], which inhibition at 0.01 µM [1] is on record?
**A.** 33%

**Q.** What about the IC50 (Recombinant DPP-IV) of the same compound?
**A.** 49 ± 6 nM

**Q.** Which inhibition at 0.01 µM [1] does the source give for `CC[C@H](C)[C@H](NC(=O)[C@H](CO)NC(=O)[C@H](Cc1ccc(O)cc1)NC(=O)[C@H](CC(=O)O)NC(=O)[C@H](CO)NC(=O)[C@@H](NC(=O)[C@H](Cc1ccccc1)NC(=O)[C@@H](NC(=O)CNC(=O)[C@H](CCC(=O)O)NC(=O)[C@H](C)NC(=O)[C@@H](N)Cc1ccc(O)cc1)[C@@H](C)O)[C@@H](C)CC)C(=O)N[C@@H](C)C(=O)N[C@@H](CC(C)C)C(=O)N[C@@H](CC(=O)O)C(=O)N[C@@H](CCCCN)C(=O)N[C@H](C(=O)N[C@@H](Cc1c[nH]cn1)C(=O)N[C@@H](CCC(N)=O)C(=O)N[C@@H](CCC(N)=O)C(=O)N[C@@H](CC(=O)O)C(=O)N[C@@H](Cc1ccccc1)C(=O)N[C@H](C(=O)N[C@@H](CC(N)=O)C(=O)N[C@@H](Cc1c[nH]c2ccccc12)C(=O)N[C@@H](CC(C)C)C(=O)N[C@@H](CC(C)C)C(=O)N[C@@H](C)C(=O)N[C@@H](CCC(N)=O)C(=O)N[C@@H](CCCCN)C(=O)NCCOCCOCC(=O)NCCCC[C@H](N)C(=O)N1CCC[C@H]1C#N)C(C)C)[C@@H](C)CC` [[Leu^14]GIP(1-30)-Ado-Lys-N-ε-(2-(S)-cyano pyrrolidyl)] (H-YAEGTFISDYSIALDKIHQQDFVNWLLAQK[AEEA][εLys]-{Pyrrolidine(2S-CN)}) here?
**A.** 100%

**Q.** And the IC50 (Recombinant DPP-IV)?
**A.** 109 ± 1 nM

**Q.** `CC[C@H](C)[C@H](NC(=O)[C@H](CO)NC(=O)[C@H](Cc1ccc(O)cc1)NC(=O)[C@H](CC(=O)O)NC(=O)[C@H](CO)NC(=O)[C@@H](NC(=O)[C@H](Cc1ccccc1)NC(=O)[C@@H](NC(=O)CNC(=O)[C@H](CCC(=O)O)NC(=O)[C@H](C)NC(=O)[C@@H](N)Cc1ccc(O)cc1)[C@@H](C)O)[C@@H](C)CC)C(=O)N[C@@H](C)C(=O)N[C@@H](CCSC)C(=O)N[C@@H](CC(=O)O)C(=O)N[C@@H](CCCCN)C(=O)N[C@H](C(=O)N[C@@H](Cc1c[nH]cn1)C(=O)N[C@@H](CCC(N)=O)C(=O)N[C@@H](CCC(N)=O)C(=O)N[C@@H](CC(=O)O)C(=O)N[C@@H](Cc1ccccc1)C(=O)N[C@H](C(=O)N[C@@H](CC(N)=O)C(=O)N[C@@H](Cc1c[nH]c2ccccc12)C(=O)N[C@@H](CC(C)C)C(=O)N[C@@H](CC(C)C)C(=O)N[C@@H](C)C(=O)N[C@@H](CCC(N)=O)C(=O)N[C@@H](CCCCN)C(=O)NCCOCCOCC(=O)NCCCC[C@H](N)C(=O)N1CCC[C@H]1C#N)C(C)C)[C@@H](C)CC` [GIP(1-30)-Ado-Lys-N-ε-(2-(S)-cyano pyrrolidyl)] was tested. Which inhibition at 0.01 µM [1] did it give?
**A.** 99%

**Q.** And the IC50 (Recombinant DPP-IV)?
**A.** 98 ± 5 nM
